Measurements: US20070036793A1, “Methods for use of an lkb1/strad7mo25 complex” (priority 2003, published 2007)
“Also recorded” adds a separate entry of the source.

What was measured:
[1] = system: acetyl-CoA carboxylase (ACC); assay: Phosphorylation of acetyl-CoA carboxylase at Ser-79 in HeLa cells expressing LKB1; assay type: cell-based, human; conditions: HeLa cells stably expressing wild type LKB1; 2 mM AICA riboside or 10 mM phenformin, 60 min
Experimental: FIG. 18: Restoration of the ability of AMPK to be activated by AICA riboside and phenformin in HeLa cells by expression of LKB1. Control HeLa cells (lanes 1, 2, 3), HeLa cells expressing wild type (WT) LKB1 (lanes 4, 5, 6) and kinase dead (D194A, KD) mutant LKB1 (lanes 7, 8, 9) were either left unstimulated or treated with 2 mM AICA riboside or 10 mM phenformin for 60 min and lysed. (A) Endogenous AMPK was immunoprecipitated from the cell extracts and assayed. (B) The cell lysates was immunoblotted with antibodies recognising AMPKα1 phosphorylated at Thr172 or total AMPKα1; the results were analysed using the LI-COR IR Odyssesy™ imager as described under Materials and Methods, and are expressed as a ratio of the two signals. (C) The cell lysates was analysed by Western blotting and the membranes probed with antibodies recognising ACC phosphorylated at Ser-79, or streptavidin to determine total […]. The results were analysed using the LI-COR IR imager as for (B).
To analyse phosphorylation of ACC, samples were analysed by SDS-PAGE, transferred to nitrocellulose (BioRad) and incubated in Odyssey™ Blocking buffer containing 0.2% Tween-20 for 1 h. […] The membranes were scanned in two different channels using the Odyssey™ IR imager, the results quantified using Odyssey™ software and expressed as a ratio of the signal obtained with the pACC antibody to that obtained with streptavidin. […]

AMPKα1 = target: T1, AMPKα1 (Mus musculus, UniProt Q5EG47); assay: AMPK activity and Thr172 phosphorylation in LKB1+/+ MEFs after drug stimulation; assay type: cell-based; conditions: 1 h
T1 construct: AMPKα1 and AMPK-related kinases were immunoprecipitated from the cell lysates; endogenous in cells; host or cells: immortalised LKB1+/+ MEFs
Experimental: (§1) FIG. 27 Activity of AMPK-related kinases in LKB1+/+ and LKB1^−/− MEFs. LKB1^+/+ or LKB1^−/− MEFs were either left untreated (black bars) or stimulated with 10 mM phenformin (Phen, white bars) for 1 h. AMPKα1 and AMPK-related kinases were immunoprecipitated from the cell lysates, and in vitro kinase activity towards the AMARA peptide was measured as described in Materials and Methods (Example 4). To confirm equal expression of the kinases in each sample, cell lysates (AMPKα1, NUAK2, MARK2/3 and MARK4) or immunoprecipitated proteins (QIK, QSK, SIK and MARK1) were subjected to SDS-PAGE and western blot analysis. All AMPK-related kinases migrated with the expected molecular mass. In the case of AMPKα1, cell lysates were immunoblotted with a phospho Thr172 antibody (P-AMPK), that recognises the phosphorylated T-loop. A control immunoblot of LKB1 levels in cell lysates is also included in panel B. Results shown are average + SD of 2-4 assays and are representative of at least two independent experiments.
FIG. 28. […] (A) LKB1^+/+ MEFs were either left untreated or stimulated with the indicated concentrations of phenformin (Phen) for 1 h. AMPKα1/a2 and LKB1 were immunoprecipitated from the cell lysates, and in vitro kinase activity towards the AMARA and LKBtide peptides respectively, were measured as described in Materials and Methods (Example 4). (B) To confirm equal expression of the kinases in each sample, cell lysates were subjected to SDS-PAGE and western blot analysis with the indicated antibodies. The phospho pT172 antibody (P-AMPK) recognises the phosphorylated T-loop of AMPKα1. Results are shown as the average ± SD for a triplicate assay and are representative of two independent experiments. […] AMPKα1 and the indicated AMPK-related kinases were immunoprecipitated from the cell lysates, and in vitro kinase activity towards the AMARA peptide measured as described in Materials and Methods. […]
(§2) Cell culture, stimulation and cell lysis. […] Protein concentrations were determined by the Bradford method with bovine serum albumin as the standard (Bradford, 1976). […]

[2] = system: AMPK-related kinases (NUAK2, QIK, QSK, SIK, MARK1, MARK2/3, MARK4); assay: Activity of endogenous AMPK-related kinases immunoprecipitated from MEFs after drug stimulation; assay type: cell-based, mouse; conditions: 1 h
Experimental: as §1, with “A control immunoblot of LKB1 levels in cell lysates is also included in panel B. Results shown are average + SD of 2-4 assays and are representative of at least two independent experiments.” left out
FIG. 28. […] AMPKα1/a2 and LKB1 were immunoprecipitated from the cell lysates, and in vitro kinase activity towards the AMARA and LKBtide peptides respectively, were measured as described in Materials and Methods (Example 4). […] AMPKα1 and the indicated AMPK-related kinases were immunoprecipitated from the cell lysates, and in vitro kinase activity towards the AMARA peptide measured as described in Materials and Methods. […]
as §2

T1 sequence (Q5EG47 whole entry): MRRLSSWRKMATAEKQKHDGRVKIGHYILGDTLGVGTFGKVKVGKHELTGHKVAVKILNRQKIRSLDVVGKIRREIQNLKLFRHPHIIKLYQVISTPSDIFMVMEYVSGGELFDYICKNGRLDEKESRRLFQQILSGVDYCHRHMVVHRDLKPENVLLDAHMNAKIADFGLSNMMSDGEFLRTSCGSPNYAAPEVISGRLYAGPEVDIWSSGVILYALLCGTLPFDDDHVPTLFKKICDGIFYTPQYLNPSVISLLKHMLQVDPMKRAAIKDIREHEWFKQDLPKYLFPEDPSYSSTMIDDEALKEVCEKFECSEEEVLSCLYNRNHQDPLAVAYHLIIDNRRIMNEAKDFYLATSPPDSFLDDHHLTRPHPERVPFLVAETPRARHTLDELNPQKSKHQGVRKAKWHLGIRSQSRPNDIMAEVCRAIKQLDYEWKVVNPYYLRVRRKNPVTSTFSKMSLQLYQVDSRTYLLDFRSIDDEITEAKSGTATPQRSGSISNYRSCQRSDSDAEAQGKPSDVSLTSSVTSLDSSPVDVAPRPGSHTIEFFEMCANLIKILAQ
T1 sequence (Q9R078 2-270 partner limits assumed): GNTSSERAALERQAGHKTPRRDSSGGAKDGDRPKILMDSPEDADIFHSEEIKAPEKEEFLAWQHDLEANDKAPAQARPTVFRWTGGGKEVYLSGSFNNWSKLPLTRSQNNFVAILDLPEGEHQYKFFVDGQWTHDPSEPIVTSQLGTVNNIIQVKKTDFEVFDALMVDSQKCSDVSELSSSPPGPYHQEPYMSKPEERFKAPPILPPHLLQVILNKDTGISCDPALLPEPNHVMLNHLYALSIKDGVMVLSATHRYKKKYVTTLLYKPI
T1 sequence (O54950 whole entry partner): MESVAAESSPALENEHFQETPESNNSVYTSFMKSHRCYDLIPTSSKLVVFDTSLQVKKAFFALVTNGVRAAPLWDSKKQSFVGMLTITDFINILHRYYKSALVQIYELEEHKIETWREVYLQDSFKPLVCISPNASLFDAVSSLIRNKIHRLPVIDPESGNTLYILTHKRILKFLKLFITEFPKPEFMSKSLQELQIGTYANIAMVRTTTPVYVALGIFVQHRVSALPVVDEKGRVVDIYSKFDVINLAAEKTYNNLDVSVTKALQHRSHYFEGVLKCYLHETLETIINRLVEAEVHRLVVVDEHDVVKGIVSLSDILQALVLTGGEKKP

SMILES	phosphorylation of downstream target ACC (Ser-79) [1]	activation of AMPK (AMPKα1; increasing doses of phenformin)	phosphorylation of Thr172 of AMPK (AMPKα1; increasing doses of phenformin)	activity of AMPK-related kinases ([2]; MEFs, 10 mM phenformin)	activation of AMPK (AMPKα1; 2 mM AICA riboside)	activity of AMPK-related kinases ([2]; LKB1+/+ MEFs, 2 mM AICA riboside)
[H]/N=C(/N)N/C(=N/[H])NCCc1ccccc1 [phenformin]	restored	progressively activated AMPK	increased the phosphorylation of Thr172	not significantly stimulated	–	–
NC(=O)c1ncn([C@@H]2O[C@H](CO)[C@@H](O)[C@H]2O)c1N [AICA riboside, 5-aminoimidazole-4-carboxamide (AICA) riboside]	larger effect than phenformin; also recorded: restored	–	–	–	activated AMPK	failed to markedly activate
